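Each compound was tested at five concentrations against cells in 96-well plates for 48 hours. GI50 is the concentration that inhibits growth by half. Definition used: TGI = concentration required for complete inhibition of growth.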
What was measured:
Experiment in all cases: DTP human tumour cell line panel, 48 h
[1] = system: 786-0 renal
[2] = system: A498 renal
[3] = system: A549 NSCLC
[4] = system: ACHN renal
[5] = system: BT-549 breast
[6] = system: CAKI-1 renal
[7] = system: CCRF-CEM leukemia
[8] = system: COLO 205 colon
[9] = system: DU-145 prostate
[10] = system: EKVX NSCLC
[11] = system: HCC-2998 colon
[12] = system: HCT-116 colon
[13] = system: HCT-15 colon
[14] = system: HL-60(TB) leukemia
[15] = system: HOP-62 NSCLC
[16] = system: HOP-92 NSCLC
[17] = system: HS 578T breast
[18] = system: HT29 colon
[19] = system: IGROV1 ovarian
[20] = system: K-562 leukemia
[21] = system: KM12 colon
[22] = system: LOX IMVI melanoma
[23] = system: M14 melanoma
[24] = system: MALME-3M melanoma
[25] = system: MCF7 breast
[26] = system: MDA-MB-231 breast
[27] = system: MDA-MB-435
[28] = system: MOLT-4 leukemia
[29] = system: NCI-H226 lung
[30] = system: NCI-H23 lung
[31] = system: NCI-H460 lung
[32] = system: NCI-H522 lung
[33] = system: NCI/ADR-RES ovarian
[34] = system: OVCAR-3 ovarian
[35] = system: OVCAR-4 ovarian
[36] = system: OVCAR-5 ovarian
[37] = system: OVCAR-8 ovarian
[38] = system: PC-3 prostate
[39] = system: RPMI-8226 leukemia
[40] = system: RXF 393 renal
[41] = system: SF-268 CNS
[42] = system: SF-295 CNS
[43] = system: SF-539 CNS
[44] = system: SK-MEL-2 melanoma
[45] = system: SK-MEL-28 melanoma
[46] = system: SK-MEL-5 melanoma
[47] = system: SK-OV-3 ovarian
[48] = system: SN12C renal
[49] = system: SNB-19 CNS
[50] = system: SNB-75 CNS
[51] = system: SR leukemia
[52] = system: SW-620 colon
[53] = system: T-47D breast
[54] = system: TK-10 renal
[55] = system: U251 CNS
[56] = system: UACC-257 melanoma
[57] = system: UACC-62 melanoma
[58] = system: UO-31 renal
[59] = system: MDA-N

`CC/C=C\C[C@H](O)C/C=C1/C(=O)C=C[C@@H]1C/C=C\CCCCO` gave a GI50 [1] of 1.91 µM, a TGI [1] of 3.77 µM and a GI50 [2] of 16.8 µM. It also gave a TGI [2] of 32.5 µM, a GI50 [3] of 3.35 µM and a TGI [3] of 11.5 µM. It also gave a GI50 [4] of 1.8 µM, a TGI [4] of 3.66 µM and a GI50 [5] of 2.46 µM. The TGI [5] was 6.68 µM, the GI50 [6] was 3.14 µM and the TGI [6] was 12.8 µM. It also gave a GI50 [7] of 2.43 µM, a TGI [7] of 16.5 µM and a GI50 [8] of 2.45 µM. The TGI [8] was 5.99 µM, the GI50 [9] was 4 µM and the TGI [9] was 15.2 µM. It also gave a GI50 [10] of 4.22 µM, a TGI [10] of 18 µM and a GI50 [11] of 1.83 µM. For the same molecule, the TGI [11] was 3.38 µM, the GI50 [12] was 1.7 µM and the TGI [12] was 3.33 µM. The GI50 [13] was 1.58 µM, the TGI [13] was 4.57 µM and the GI50 [14] was 2.29 µM. It also gave a TGI [14] of 6.88 µM, a GI50 [15] of 2.12 µM and a TGI [15] of 5 µM. For the same molecule, the GI50 [16] was 11.7 µM, the TGI [16] was 25 µM and the GI50 [17] was 9.24 µM. It also gave a TGI [17] greater than 100 µM, a GI50 [18] of 2.4 µM and a TGI [18] of 5.62 µM. The GI50 [19] was 3.22 µM, the TGI [19] was 12 µM and the GI50 [20] was 2.91 µM. The TGI [20] was greater than 100 µM, the GI50 [21] was 2.84 µM and the TGI [21] was 11.5 µM. It also gave a GI50 [22] of 1.34 µM, a TGI [22] of 2.93 µM and a GI50 [23] of 2.06 µM. It also gave a TGI [23] of 6.17 µM, a GI50 [24] of 2.44 µM and a TGI [24] of 7.48 µM. The GI50 [25] was 0.544 µM, the TGI [25] was 10.6 µM and the GI50 [26] was 3.92 µM. It also gave a TGI [26] of 14.9 µM, a GI50 [27] of 3.48 µM and a TGI [27] of 15.8 µM. For the same molecule, the GI50 [28] was 2.65 µM, the TGI [28] was 11.1 µM and the GI50 [29] was 2.24 µM. It also gave a TGI [29] of 4.76 µM, a GI50 [30] of 2.26 µM and a TGI [30] of 5.95 µM. It also gave a GI50 [31] of 2.93 µM, a TGI [31] of 9.24 µM and a GI50 [32] of 1.74 µM. For the same molecule, the TGI [32] was 3.95 µM, the GI50 [33] was 3.35 µM and the TGI [33] was 38.4 µM. The GI50 [34] was 3.72 µM, the TGI [34] was 12.9 µM and the GI50 [35] was 3.55 µM. The TGI [35] was 18.7 µM, the GI50 [36] was 3.25 µM and the TGI [36] was 8.95 µM. It also gave a GI50 [37] of 3.24 µM, a TGI [37] of 11.9 µM and a GI50 [38] of 3.32 µM. It also gave a TGI [38] of 9.23 µM, a GI50 [39] of 2.52 µM and a TGI [39] of 10.4 µM. The GI50 [40] was 2.25 µM, the TGI [40] was 4.18 µM and the GI50 [41] was 4.53 µM. For the same molecule, the TGI [41] was 23.9 µM, the GI50 [42] was 2.39 µM and the TGI [42] was 6.34 µM. The GI50 [43] was 2.03 µM, the TGI [43] was 4.55 µM and the GI50 [44] was 5.96 µM. For the same molecule, the TGI [44] was 22.6 µM, the GI50 [45] was 2.39 µM and the TGI [45] was 6.87 µM. The GI50 [46] was 1.88 µM, the TGI [46] was 3.78 µM and the GI50 [47] was 5.08 µM. For the same molecule, the TGI [47] was 29.2 µM, the GI50 [48] was 2.52 µM and the TGI [48] was 6.53 µM. For the same molecule, the GI50 [49] was 7.6 µM, the TGI [49] was 23.2 µM and the GI50 [50] was 11 µM. The TGI [50] was 38.4 µM, the GI50 [51] was 1.97 µM and the TGI [51] was 16.2 µM. It also gave a GI50 [52] of 2.98 µM, a TGI [52] of 15.2 µM and a GI50 [53] of 2.63 µM. It also gave a TGI [53] of 11.1 µM, a GI50 [54] of 3.31 µM and a TGI [54] of 9.22 µM. The GI50 [55] was 3.81 µM, the TGI [55] was 13.4 µM and the GI50 [56] was 2.59 µM. For the same molecule, the TGI [56] was 9.36 µM, the GI50 [57] was 1.87 µM and the TGI [57] was 5.46 µM. The GI50 [58] was 1.63 µM and the TGI [58] was 3.23 µM.
`O=c1[nH]c(=O)n(CCOc2ccc(Cl)cc2)cc1Nc1ccccc1` was tested, and the TGI [1] was greater than 100 µM, the TGI [2] was greater than 100 µM and the TGI [3] was greater than 100 µM. For the same molecule, the TGI [4] was greater than 100 µM, the TGI [6] was greater than 100 µM and the TGI [7] was greater than 100 µM. For the same molecule, the TGI [8] was greater than 100 µM, the TGI [9] was greater than 100 µM and the TGI [10] was greater than 100 µM. For the same molecule, the TGI [11] was greater than 100 µM, the TGI [12] was greater than 100 µM and the TGI [13] was greater than 100 µM. The TGI [14] was greater than 100 µM, the TGI [15] was greater than 100 µM and the TGI [16] was greater than 100 µM. For the same molecule, the TGI [17] was greater than 100 µM, the TGI [18] was greater than 100 µM and the TGI [19] was greater than 100 µM. For the same molecule, the TGI [20] was greater than 100 µM, the TGI [21] was greater than 100 µM and the TGI [22] was greater than 100 µM. For the same molecule, the TGI [23] was greater than 100 µM, the TGI [25] was greater than 100 µM and the TGI [27] was greater than 100 µM. It also gave a TGI [59] greater than 100 µM, a TGI [28] greater than 100 µM and a TGI [30] greater than 100 µM. It also gave a TGI [31] greater than 100 µM, a TGI [33] greater than 100 µM and a TGI [34] greater than 100 µM. For the same molecule, the TGI [35] was greater than 100 µM, the TGI [36] was greater than 100 µM and the TGI [38] was greater than 100 µM. It also gave a TGI [39] greater than 100 µM, a TGI [40] greater than 100 µM and a TGI [41] greater than 100 µM. It also gave a TGI [42] greater than 100 µM, a TGI [45] greater than 100 µM and a TGI [46] greater than 100 µM. For the same molecule, the TGI [48] was greater than 100 µM, the TGI [49] was greater than 100 µM and the TGI [51] was greater than 100 µM. The TGI [52] was greater than 100 µM, the TGI [55] was greater than 100 µM and the TGI [56] was greater than 100 µM. It also gave a TGI [57] greater than 100 µM and a TGI [58] greater than 100 µM.
